Measurements from paper PMC12197453 (Viruses, 2025).

How the values were obtained:
A549 cells = test: Cytotoxicity assay (Cell Counting Kit-8) in A549 cells; format: cell-based; details: 48 h; for cytotoxicity (cell viability): 10 μM; for CC50: Cell Counting Kit-8, read-out: CC50 (50% cytotoxic concentration)
BHK-21 cells = test: Cytotoxicity (Cell Counting Kit-8) in BHK-21 cells; format: cell-based; details: 10 μM, 48 h
293T cells = test: Cytotoxicity (Cell Counting Kit-8) in 293T cells; format: cell-based; details: 10 μM, 48 h
JEV-GFP replicon = test: Inhibition of JEV-GFP replicon replication in transfected BHK-21 cells; format: cell-based, Japanese encephalitis virus; details: 48 h, BHK-21 transfectants; for NS1 gene expression of the JEV-GFP replicon (library screening): screen of 20 bioactive compounds, qRT-PCR
rJEV-EGFP [1] = test: Inhibition of rJEV-EGFP replication in BHK-21 cells (green fluorescence); format: cell-based, Japanese encephalitis virus; details: 10 μM, 48 h post-treatment, vs DMSO
rJEV-EGFP [2] = test: Inhibition of rJEV-EGFP replication in 293T cells (green fluorescence); format: cell-based, Japanese encephalitis virus; details: 10 μM, 48 h post-treatment, vs DMSO
rJEV-EGFP [3] = test: Inhibition of rJEV-EGFP replication in A549 cells; format: cell-based, Japanese encephalitis virus; details: for intensities of green fluorescence produced by rJEV-EGFP replication: 10 μM, vs DMSO; for intensities of green fluorescence produced by rJEV-EGFP replication / levels of the JEV NS1 gene (qRT-PCR): 48 h post-treatment, A549 cells; for SI (Selectivity Index): SI = CC50/EC50, A549 cells; for levels of the JEV NS1 gene (qRT-PCR): different concentrations
[4] = Cytotoxicity assay (Cell Counting Kit-8) in A549 cells; format: cell-based; details: human, Cell Counting Kit-8, read-out: CC50 (50% cytotoxic concentration)

Row | SMILES | cytotoxicity (cell viability) (A549 cells) | CC50 (A549 cells) [µM] | cytotoxicity (cell viability) (BHK-21 cells) | cytotoxicity (cell viability) (293T cells) | intensity of green fluorescence of JEV-GFP replicon (JEV-GFP replicon; 10 μM, vs DMSO) | levels of the NS1 gene of JEV-GFP replicon (qRT-PCR) (JEV-GFP replicon; 10 μM, vs DMSO) | NS1 gene expression of the JEV-GFP replicon (library screening) (JEV-GFP replicon) | intensities of green fluorescence produced by rJEV-EGFP replication (rJEV-EGFP [1]) | intensities of green fluorescence produced by rJEV-EGFP replication (rJEV-EGFP [2]) | intensities of green fluorescence produced by rJEV-EGFP replication (rJEV-EGFP [3]) | SI (Selectivity Index) (rJEV-EGFP [3]) | levels of the JEV NS1 gene (qRT-PCR) (rJEV-EGFP [3]) | CC50 at 48 h [4] [µM] | SI (Selectivity Index) (rJEV-EGFP [3]; listed as quinine)
1 | COc1cc(NC(C(=O)N2CCc3ccc(OC(F)(F)F)cc32)c2ccc(Cl)cc2)cc(OCCCC(=O)O)c1 (stereo not shown) [JNJ-A07] | no significant cytotoxicities | 29.9 | no significant cytotoxicities | no significant cytotoxicities | significantly reduced | reduced | higher inhibitory effect | remarkably reduced | remarkably reduced | remarkably reduced | 2296.92 | significantly decreased |  | 
2 | C#C[C@@]1(O)[C@H](O)[C@@H](CO)O[C@H]1n1ccc2c(N)ncnc21 [NITD008] | no significant cytotoxicities | 37.8 | no significant cytotoxicities | no significant cytotoxicities |  | reduced | higher inhibitory effect | remarkably reduced | remarkably reduced | remarkably reduced |  | significantly decreased |  | 
3 | C=C[C@H]1C[N@@]2CC[C@H]1C[C@H]2[C@H](O)c1ccnc2ccc(OC)cc12 [Quinine] | no significant cytotoxicities |  | no significant cytotoxicities | no significant cytotoxicities |  | reduced | higher inhibitory effect | remarkably reduced | remarkably reduced | remarkably reduced | 282.47 | significantly decreased | 45.8 | 334.16
